“And” between values parts separate entries of the source, which are not always exact repeats. Identical values can stand only once. Like-named read-outs stand apart in the source and are kept apart here.
What was measured:
[1] = test system: telomeres, 36B4, MT-COX1, MT-CYB DNA of PANC1 cells; assay: Oxidized bases (FPG-sensitive lesions) in genome regions by qPCR; format: cell-based, human; settings: PANC1, IC50 concentration 24 h, normalized to control, single replicates
Text: (§1) Total cellular DNA from MKN45 and PANC1 cells was extracted using an NZY Tissue gDNA Isolation Kit (Nzytech, MB13503) following the manufacturer’s instructions and quantified using a Nanodrop (Nanodrop Spectrophotometer ND-1000, ThermoFisher Scientific, Wilmington, DE, USA). We adapted the procedure described by O’Callaghan et al.[76] to measure oxidative DNA damage at telomeres, 36B4 genomic region and at mitochondrial DNA (MT-COX1, MT-CYB). This is a qPCR method based on differences in PCR kinetics between DNA template digested by Formamidopyrimidine DNA Glycosylase (FPG, Cat no. M0240S) and undigested DNA. This enzyme recognizes and cuts 8-oxoguanine, producing apurinic sites that are converted into single-strand breaks by its apurinic sites lyase activity. These single-strand breaks inhibit the PCR, thus, the ΔCT after digesting DNA by […] (Ct digested–Ct undigested) is proportional to the oxidative damage in the amplified region. DNA was incubated with 8 Units of FPG during 3 h in FPG buffer (NEB1, M0240S). The reaction was stopped by incubation at 95 °C for 5 min. qPCR analysis was performed on 40 ng of digested or undigested genomic DNA. Each qPCR was performed in triplicate including no-template controls in a StepOne Real‐time PCR System (Applied Biosystems, 4376357). Target genes (Table 3) were amplified using SYBR Green (Applied Biosystems, MB345). Thermal cycling of the qPCR reaction was initiated with a denaturation step at 95 °C for 10 min. The process consisted of 40 cycles (denaturation at 95 °C for 15 sec, annealing at 60 °C for 30 sec, and elongation at 72 °C for 30 sec). This experiment was repeated three independent times with 10–12 replicates.

[2] = test system: telomeres, 36B4, MT-COX1, MT-CYB DNA of MKN45 cells; assay: as above; format: cell-based, human; settings: MKN45, IC50 concentration 24 h, normalized to control, single replicates
Text: as §1

AGS cells [3] = assay: Cell viability, crystal violet staining; settings: for Cell Viability without NAC: AGS cells, Fig. S6A; for IC50: read-out: IC50 concentration (± SD) at 48 h, 48 h
Protocol: (§2) Cell viability was assessed using a crystal violet-based staining method. […] The cells (2 × 10^5) were seeded in 24-multiwell dishes in 0.5 mL of complete medium and incubated overnight. […] After 48 h, cells were fixed with 1% glutaraldehyde (20–30 min), washed with distilled water, and stained with 0.1% crystal violet. […] IC50 were calculated by using GraphPad Prism (version 8.0). Nonlinear regression was used to fit the data to the log (inhibitor) versus response (variable slope).

MKN45 cells [4] = assay: Cell viability, crystal violet staining; settings: for Cell Viability without NAC: MKN45 cells, Fig. S6A; for IC50: read-out: IC50 concentration (± SD) at 48 h, 48 h
Protocol: as §2

PANC1 cells [5] = assay: Cell viability, crystal violet staining; settings: for Cell Viability without NAC: PANC1 cells, Fig. S6A; for IC50: read-out: IC50 concentration (± SD) at 48 h, 48 h
Protocol: as §2

AGS cells [6] = assay: SA-β-Gal activity, CellEvent Senescence Green flow cytometry;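 further: IC50 concentration of each compound relative to untreated control set as 1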; format: cell-based, human; settings: Fig. 3A, replicate values
Outline: (§3)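 AGS, MKN45 or PANC1 cells (5×10^4) were seeded in 24-well plates overnight before treatment. For flow cytometry, cells were PFA-fixed and stained with CellEvent Senescence Green probe (1:500), read at ex 488/em 530/30 nm. For histochemistry, cells were treated 3 h, then kept 24 h in fresh medium before SA-β-Gal staining.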

PANC1 cells [7] = assay: as above; format: cell-based, human; settings: Fig. 3A, replicate values
Outline: as §3

AGS cells [8] = assay: Clonogenic (CFU) assay with or without NAC; format: cell-based, human; settings: 10 days
Protocol: (§4) For the clonogenic assay we used two different approaches. […] Then, cells were cultured in a 6-well plate at a very low concentration (2 × 10^3 cells per well) and incubated for 10 days. […] To evaluate the role of ROS in cell proliferation, we supplemented the growth medium with 0.5 mM NAC. After 10 days, the cells were fixed with 1% glutaraldehyde and stained with 0.1% crystal violet. The number of colonies was quantified directly and reflected as CFUs: Colony Forming Units.

MKN45 cells [9] = assay: Clonogenic (CFU) assay with or without NAC; format: cell-based, human; settings: 10 days
Protocol: as §4

HPDE cells = assay: Cell viability, crystal violet staining, non-tumoral cells; settings: for percentage of viable cells: 48 h
Protocol: as §2

CC2509 fibroblasts = assay: as above; settings: CC2509, 48 h
Protocol: as §2

[10] = read-out: IC50 concentration (± SD) at 48 h in non-tumoral cell lines
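Wherever Fold change % Senescence is given: IC50 concentration of each compound relative to untreated control set as 1.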

Q: How did the “TEL (Fold change - ΔCt TEL), oxidative DNA damage” value ([1]; FPG-digested vs undigested) turn out when `CC(C)[NH][Pt@SP1]([I])([I])[NH]C(C)C` [I6, cis-[PtI2(isopropylamine)2]] was run?
A: 5.579 and 4.9877 and 4.471 and 0.2398 and 0.9572 and 1.407 and 2.172 and 1.711 and 1.673 and 1.777

Q: What about the “36B4 (Fold change - ΔCt 36B4), oxidative DNA damage” value [1] of the same molecule?
A: 1.888 and 2.028 and 1.034 and 1.832 and 3.4044 and 3.392 and 3.578 and 2.951 and 2.103 and 2.482

Q: What about the “MT-COX1 (Fold change - ΔCt MT-COX1), oxidative DNA damage” value [1] of the same molecule?
A: 1.444 and 1.678 and 1.516 and 1.609 and 1.88 and 0.5367 and 1.4145 and 1.209 and 1.263 and 1.421

Q: And the “MT-CYB (Fold change - ΔCt MT-CYB), oxidative DNA damage” value [1]?
A: 1.356 and 1.264 and 1.349 and 1.774 and 2.04 and 1.998 and 2.191 and 4.689 and 8.16 and 4.981 and 6.184

Q: What about the “TEL (Fold change - ΔCt TEL), oxidative DNA damage” value ([2]; FPG-digested vs undigested) of the same molecule?
A: 0.7872 and 0.7903 and 0.6876 and 0.7373 and 0.6171 and 1.142 and 1.077 and 1.074 and 1.391

Q: What about the “36B4 (Fold change - ΔCt 36B4), oxidative DNA damage” value [2] of the same molecule?
A: 0.9227 and 0.9306 and 1.569 and 1.862 and 2.074 and 2.392 and 1.861 and 2.101 and 1.707 and 2.034

Q: And the “MT-COX1 (Fold change - ΔCt MT-COX1), oxidative DNA damage” value [2]?
A: 1.321 and 1.289 and 1.307 and 1.545 and 0.7235 and 0.8203 and 2.299 and 2.595 and 3.243 and 4.134

Q: And the “MT-CYB (Fold change - ΔCt MT-CYB), oxidative DNA damage” value [2]?
A: 1.235 and 1.231 and 1.262 and 1.5934 and 1.492 and 1.356 and 1.4814 and 1.489 and 0.5469 and 0.6464 and 1.605

Q: And the IC25 concentration (AGS cells [3]; AGS)?
A: 15 µM

Q: And the “Cell Viability without NAC” value (AGS cells [3]; dose 10 µM)?
A: 105.035

Q: And the “Cell Viability without NAC” value (AGS cells [3]; dose 50 µM)?
A: 68.1853

Q: What about the “Cell Viability without NAC” value (AGS cells [3]; dose 75 µM) of the same molecule?
A: 30.4823

Q: What about the IC50 (AGS cells [3]; AGS, NAC (+) 0.5 mM) of the same molecule?
A: > 100 µM

Q: What about the IC50 (AGS cells [3]; AGS, NAC (-)) of the same molecule?
A: 50 µM and 51.5 µM

Q: What about the “Cell Viability without NAC” value (MKN45 cells [4]; dose 7.5 µM) of the same molecule?
A: 99.1588 and 99.2583 and 108.83

Q: What about the “Cell Viability without NAC” value (MKN45 cells [4]; dose 18.7 µM) of the same molecule?
A: 103.308 and 97.338 and 102.412

Q: And the “Cell Viability without NAC” value (MKN45 cells [4]; dose 37.4 µM)?
A: 85.458 and 67.9963 and 88.4728

Q: What about the “Cell Viability without NAC” value (MKN45 cells [4]; dose 56.1 µM) of the same molecule?
A: 58.2655 and 42.2365 and 52.8031

Q: And the “Cell Viability without NAC” value (MKN45 cells [4]; dose 74.8 µM)?
A: 41.9977 and 31.3714 and 39.5202

Q: What about the IC50 (MKN45 cells [4]; MKN45, NAC (+) 0.5 mM) of the same molecule?
A: > 100 µM

Q: What about the IC50 (MKN45 cells [4]; MKN45, NAC (-)) of the same molecule?
A: 56.8 ± 1.53 µM

Q: What about the “Cell Viability without NAC” value (PANC1 cells [5]; dose 10 µM) of the same molecule?
A: 77.9259 and 88.6605 and 70.8131

Q: And the “Cell Viability without NAC” value (PANC1 cells [5]; dose 25 µM)?
A: 47.4239 and 33.5177 and 35.073

Q: And the “Cell Viability without NAC” value (PANC1 cells [5]; dose 50 µM)?
A: 47.9877 and 31.0793 and 43.6951

Q: What about the IC50 (PANC1 cells [5]; PANC1, NAC (+) 0.5 mM) of the same molecule?
A: > 100 µM

Q: What about the IC50 (PANC1 cells [5]; PANC1, NAC (-)) of the same molecule?
A: 20 µM and 18.8 µM

Q: And the “Fold change % Senescence” value (AGS cells [6])?
A: 5.13 fold change and 5.74 fold change and 3.46 fold change

Q: And the “Fold change % Senescence” value (PANC1 cells [7])?
A: 3.99 fold change and 3.23 fold change and 3.43 fold change

Q: And the “colonies (CFUs), mean ± SD” value (AGS cells [8]; AGS + NAC 0.5 mM, IC25 concentration)?
A: 613 ± 89

Q: What about the “colonies (CFUs), mean ± SD” value (AGS cells [8]; AGS + NAC 0.5 mM, IC50 concentration) of the same molecule?
A: 329 ± 152

Q: What about the “colonies (CFUs), mean ± SD” value (AGS cells [8]; AGS, IC25 concentration, no NAC) of the same molecule?
A: 268 ± 63

Q: What about the “colonies (CFUs), mean ± SD” value (AGS cells [8]; AGS, IC50 concentration, no NAC) of the same molecule?
A: 0

Q: What about the “colonies (CFUs), mean ± SD” value (MKN45 cells [9]; MKN45 + NAC 0.5 mM, IC25 concentration) of the same molecule?
A: 526 ± 93

Q: What about the “colonies (CFUs), mean ± SD” value (MKN45 cells [9]; MKN45 + NAC 0.5 mM, IC50 concentration) of the same molecule?
A: 46 ± 2

Q: What about the “colonies (CFUs), mean ± SD” value (MKN45 cells [9]; MKN45, IC25 concentration, no NAC) of the same molecule?
A: 1 ± 1.7

Q: And the “colonies (CFUs), mean ± SD” value (MKN45 cells [9]; MKN45, IC50 concentration, no NAC)?
A: 0

Q: And the “percentage of viable cells” value (HPDE cells; dose 2.5 µM)?
A: 88.7955% and 72.4125% and 95.3401%

Q: And the “percentage of viable cells” value (HPDE cells; dose 5 µM)?
A: 78.4314% and 72.7203% and 72.6353%

Q: What about the “percentage of viable cells” value (HPDE cells; dose 10 µM) of the same molecule?
A: 57.5163% and 55.8292% and 52.5038%

Q: What about the “percentage of viable cells” value (HPDE cells; dose 25 µM) of the same molecule?
A: 22.9225% and 35.4367% and 19.9292%

Q: What about the “percentage of viable cells” value (HPDE cells; dose 50 µM) of the same molecule?
A: 8.5901% and 14.6939% and 8.599%

Q: And the IC50 (HPDE cells; [10])?
A: 15 µM and 14.2 µM

Q: What about the “percentage of viable cells” value (CC2509 fibroblasts; dose 2.5 µM) of the same molecule?
A: 101.369% and 68.5642% and 72.6415%

Q: And the “percentage of viable cells” value (CC2509 fibroblasts; dose 5 µM)?
A: 100.382% and 62.1377% and 89.6445%

Q: What about the “percentage of viable cells” value (CC2509 fibroblasts; dose 10 µM) of the same molecule?
A: 50.1592% and 62.7776% and 90.9953%

Q: And the “percentage of viable cells” value (CC2509 fibroblasts; dose 25 µM)?
A: 52.2611% and 59.729% and 78.3886%

Q: What about the “percentage of viable cells” value (CC2509 fibroblasts; dose 50 µM) of the same molecule?
A: 30.3822% and 34.0139% and 46.6351%

Q: What about the IC50 (CC2509 fibroblasts; [10]) of the same molecule?
A: 35 µM and 33.8 µM
